Assay results published in PMC9916925, “Copper (II) Species with Improved Anti-Melanoma and Antibacterial Activity by Inclusion in β-Cyclodextrin” (International Journal of Molecular Sciences, 2023).
≈ marks a conversion by molar mass, not a printed value. Read-outs that look alike come from different tables or passages of the source.

What was measured:
L929 fibroblasts [1] = tested on: L929 fibroblasts; parameters: method as in PMID 34833864; details: L929, time not stated; ref [25]; cited from earlier work
[2] = tested on: Staphylococcus aureus ATCC 25923; parameters: method as in PMID 34833864; details: S. aureus 25923, planktonic cells; ref [25]; cited from earlier work
biofilm-embedded cells = test: Crystal-violet microtiter anti-biofilm assay (MBEC); format: cell-based
Protocol: (§1) The antibacterial activity of the inclusion complexes was evaluated on the Gram-negative Escherichia coli ATCC 25922 and Gram-positive Staphylococcus aureus ATCC 25923 reference bacterial strains. The antibacterial activity of the β-CD, precursor complexes, and inclusion complexes was evaluated against planktonic and biofilm-embedded cells to obtain the minimum inhibitory (MIC) and minimum biofilm eradication (MBEC) concentrations, respectively. The antibacterial activity assays were carried out on the Gram-negative E. coli ATCC 25922 and the Gram-positive S. aureus ATCC 25923 reference strains. The antimicrobial activity of the β-CD inclusion complexes versus the β-CD and Cu(II) complexes against planktonic bacterial cells was assessed using the microdilution assay, allowing MIC determination. Anti-biofilm activity was evaluated using the crystal-violet microtiter to determine the MBEC [25]. All experiments were performed in triplicate. In both assays, serial binary concentrations ranging from 8.81 to 0.013 mM were used.

B16 melanoma cells = tested on: B16 melanoma cells; parameters: method as in PMID 34833864; details: ref [25], cited from earlier work
[3] = format: physicochemical
Source text: Compound (1) follows a linear profile described in the literature as an AL type, according to Higuchi and Connors. This behavior corresponds to a molar ratio of 1:1 between (1a) and β-CD, similar to that obtained using Job’s method. […] This value confirms that the equilibrium between (1) and β-CD shifts to the product, indicating a high tendency of (1) to enter the cavity of β-CD together with good stability of the (1a)@β-CD complex. […] Higuchi described this model as being AP, meaning a positive deviation from the linearity, corresponding to a 1:2 molar ratio between (2) and β-CD, in very good agreement with results obtained by Job’s method. This type of stoichiometry literature indicates a possibility of evaluating the stability constant starting from the equation of a quadratic model. Even if this is not a perfect model and the value calculated is affected by an error ~30%, reliable information about the stability of the (2a)@β -CD complex could be obtained. The model ensures the calculation of K1:1 and K1:2. The obtained values were 20.44 and 6 M^–1.
The method settled for phase-solubility studies was adapted from a previous paper. First, calibration curves for (1) and (2) were obtained. For this purpose, successive dilutions from the stock solution were performed, spectra were recorded and absorbance reeded 312 nm (1) and 272 nm (2). The plot of absorbance versus concentration gives two straight lines for both (1) and (2) complexes: y = 0.5111x − 0.0323 (R^2 = 0.9996) and y = 18.792x − 0.0323 (R^2 = 0.9996), respectively. Second, water and β-CD 20 mM were added to six samples containing an excess of complex (50 mg) that had the same volume but increasing β-CD concentration. In all experiments, the final volume was 5 mL. The samples were shaken for 1 h, filtered using 0.25 µm PTFE, and the solution was diluted to 1:25 mL before the spectra were recorded. The concentration of the complex in each solution was calculated using a calibration curve described above. In the end, the phase solubility diagrams were obtained by plotting the concentration of the complex versus the concentration of β-CD. The stability constants were calculated from the phase-solubility diagram as follows: (i) Kc = slope/[So × (1 − slope)], where So is the complex’s solubility in the absence of β-CD, for a 1:1 mole ratio, and (ii) STotal = S0 + K1:1[β-CD] + K1:1K1:2[β-CD]^2, where K1:1 and K1:2 are constants for 1:1 and 1:2 host–guest complexes and STotal is the total solubility of complex, for a 1:2 stoichiometry.

[4] = tested on: Escherichia coli ATCC 25922; parameters: method as in PMID 34833864; details: E. coli, planktonic cells; ref [25]; cited from earlier work
[5] = parameters: method as in PMID 34833864; details: ref [25]; cited from earlier work
L929 cells = test: Cell cycle analysis by flow cytometry, L929; format: cell-based, mouse; details: L929, 24 h, 1.56 and/or 6.25 µg/mL
Protocol: (§2) A flow cytometry analysis was used to check the possible influence of the tested compounds on the cell cycle of both cellular lines L929 and B16. Before treatment, 25,000 cells per well were seeded in 24-well plates and treated with 2 concentrations of the compounds (1.56 and 6.25 µg/mL) for 24 h. After treatment, cells were detached, washed with cold PBS, and then resuspended in cold PBS mixed with 100% ethanol and kept at −20 °C for at least 24 h for fixation. The following day, the cells were stained using a 0.1% Triton-X in PBS containing 0.2 mg/mL RNAase and 20 µg/mL propidium iodide. The samples were incubated for 30 min at 37 °C in the dark. After incubation with the staining solution, the cells were washed with PBS and resuspended in 100 µL PBS. The cell cycle measurement was made using CytoFLEX (Beckman Coulter, Brea, CA, USA) by recording 30,000 events/sample. All experiments were made in triplicate, each having at least 2 wells per condition. The data was evaluated using the CytoFLEX software.

[6] = tested on: Escherichia coli ATCC 25922; test: Microdilution MIC assay, planktonic E. coli; format: cell-based; details: this paper
Protocol: as §1

B16 cells = test: Cell cycle analysis by flow cytometry, B16; format: cell-based, mouse; details: B16, 24 h, irrespective of the tested concentration (1.56 and/or 6.25 µg/mL)
Protocol: as §2

[7] = tested on: Staphylococcus aureus ATCC 25923; test: Microdilution MIC assay, planktonic S. aureus; format: cell-based; details: S. aureus 25923, planktonic cells, this paper
Protocol: as §1

L929 fibroblasts [8] = test: MTT cellular viability assay, L929 fibroblasts; format: cell-based, mouse; details: L929, 24 or 48 h, concentrations up to 25 µg/mL
Protocol: Mouse fibroblast cell line L929 (CCL-1, ATCC, USA) and mouse melanoma cell B16 (ATCC CRL-6475, USA) were grown in DMEM (Dulbecco’s Modified Eagle Medium) supplemented with 2 mM L-Glutamine, 10% fetal calf serum (FCS), 100 units/mL of penicillin, and 100 µg/mL of streptomycin. They were kept at 37 °C in a humidified incubator under an atmosphere containing 5% CO2. All cell-cultivation media and reagents were purchased from Biochrom AG (Berlin, Germany) and Sigma-Aldrich (Darmstadt, Germany).
To test cellular viability, we used the MTT assay (3-(4,5-dimethylthiazol-2-yl)-2,5-diphenyltetrazolium bromide) colorimetric assay as previously described. Briefly, L929 and B16 cells were seeded in 96-well plates at a density of 5000 cells/well and grown in the culture medium for 24 h. […] The absorbance of the samples was recorded at λ = 570 nm using a plate reader (Mithras 940, Berthold, Bad Wildbad, Germany). The data were corrected for background absorbance, and the viability was calculated using the following formula:% viable cells = [(A570 of treated cells)/(A570 of untreated cells)] × 100 (%)
Half-maximal inhibitory concentration (IC50) was determined by fitting the data with a sigmoidal logistic function using Origin 8.1 (Microcal Inc., Northampton, MA, USA) software.

[Cu(phen)(dmtp)2(OH2)](ClO4)2·dmtp [(2)]
IC50 (L929 fibroblasts [1]): 15 µM | IC50 L929 (L929 fibroblasts [1]): 13.61 µg/mL | MIC [2]: 0.04 mM | antibiofilm activity (biofilm-embedded cells): exhibit antibiofilm activity | IC50 against B16 cells 24 h (B16 melanoma cells; B16, 24 h): 6.88 µg/mL | IC50 (B16 melanoma cells; B16, 24 h, read-out: IC50 against B16 cells 24 h): 7.6 µM | IC50 against B16 cells 48 h (B16 melanoma cells; B16, 48 h): 4.15 µg/mL | IC50 (B16 melanoma cells; B16, 48 h, read-out: IC50 against B16 cells 48 h): 4.58 µM | solubilization in water in the presence of β-CD [3]: solubilized in water | MIC [4]: 0.34 mM | scavenging of OH· radicals [5]: not observed

[Cu(bipy)(dmtp)2(OH2)](ClO4)2@β-CD [(1a)@β-CD]
Kc (stability constant, 1:1) [3]: 250 M^–1

[Cu(bipy)(dmtp)2(OH2)](ClO4)2·dmtp [(1)]
MIC [2]: 0.18 mM | antibiofilm activity (biofilm-embedded cells): exhibit antibiofilm activity | IC50 against B16 cells (B16 melanoma cells; B16, previous study): no IC50 could be calculated | solubilization in water in the presence of β-CD [3]: solubilized in water | MIC [4]: 0.71 mM

OC[C@H]1O[C@@H]2O[C@H]3[C@H](O)[C@@H](O)[C@@H](O[C@H]4[C@H](O)[C@@H](O)[C@@H](O[C@H]5[C@H](O)[C@@H](O)[C@@H](O[C@H]6[C@H](O)[C@@H](O)[C@@H](O[C@H]7[C@H](O)[C@@H](O)[C@@H](O[C@H]8[C@H](O)[C@@H](O)[C@@H](O[C@H]1[C@H](O)[C@H]2O)O[C@@H]8CO)O[C@@H]7CO)O[C@@H]6CO)O[C@@H]5CO)O[C@@H]4CO)O[C@@H]3CO [β-CD, β-cyclodextrin]
change of number of cells in either cell cycle phase (L929 cells): did not significantly alter | MIC ([6]; Escherichia coli, ATCC25922, planktonic cells, read-out: MIC): 8.81 mM (≈ 10000 µg/mL) | MIC ([6]; planktonic cells): no activity | change of number of cells in cell cycle phases (B16 cells): did not significantly alter | MIC [7]: no activity | MIC ([7]; Staphylococcus aureus, ATCC25923, read-out: MIC): 8.81 mM (≈ 10000 µg/mL) | effect on viability of normal fibroblast cells (L929 fibroblasts [8]): did not affect the viability

[Cu(phen)(dmtp)2(OH2)](ClO4)2@β-CD [(2a)@β-CD]
K1:1 (stability constant) [3]: 20.44 M^–1 | K1:2 (stability constant) [3]: 6 M^–1
